Molecules are shown by their SMILES.

Chain of human RIP1 kinase domain (2-375) (Q13546 2-375): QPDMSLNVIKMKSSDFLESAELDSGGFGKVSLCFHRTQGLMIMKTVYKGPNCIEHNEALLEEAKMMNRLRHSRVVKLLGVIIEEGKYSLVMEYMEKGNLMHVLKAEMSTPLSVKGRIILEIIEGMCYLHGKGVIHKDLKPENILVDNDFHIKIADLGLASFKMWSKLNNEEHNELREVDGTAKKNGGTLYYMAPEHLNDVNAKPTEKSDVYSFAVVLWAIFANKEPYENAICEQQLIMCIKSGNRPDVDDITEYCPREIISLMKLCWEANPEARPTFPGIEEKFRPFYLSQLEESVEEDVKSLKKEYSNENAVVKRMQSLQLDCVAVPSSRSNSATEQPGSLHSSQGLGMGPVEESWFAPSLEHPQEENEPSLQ

The target of the assay is human RIP1 kinase domain (2-375) (Homo sapiens (Human), UniProt Q13546). In words: RIP1 kinase inhibition assay (Transcreener ADP biochemical enzyme assay). The following applies: Ki app (Morrison tight-binding fit); 50 nM enzyme, 50 uM ATP, 2 hours incubation, fluorescence polarization. How it is done:
RIP1 Kinase Inhibition Assays (Biochemical Assay):
The compounds of the present invention were tested for their capacity to inhibit RIP K activity as described below.
Enzyme assay: The ability of the receptor interacting protein kinase (RIPK1) to catalyze the hydrolysis of adenosine-5′-triphosphate (ATP) is monitored using the Transcreener ADP (adenosine-5′-diphosphate) assay (BellBrook Labs). Purified human RIP1 kinase domain (2-375) (50 nM) derived from a baculovirus-infected insect cell expression system is incubated with test compounds for 2 hours in 50 mM Hepes buffer (pH 7.5) containing 30 mM MgCl2, 1 mM dithiothreitol, 50 uM ATP, 0.002% Brij-35, and 0.5% dimethyl sulfoxide (DMSO). Reactions are quenched by the addition of 1× Bell Brooks Stop buffer B (20 mM Hepes (ph7.5), 40 mM ethylenediaminetetraacetic acid and 0.02% Brij-35) containing an additional 12 mM EDTA and 55 ug/mL ADP2 antibody and 4 nM ADP-AlexaFluor® 633 tracer. The tracer bound to the antibody is displaced by the ADP generated during the RIP1K reaction, which causes a decrease in fluorescence polarization that is measured by laser excitation at 633 nm with a FP microplate reader M1000. Fractional activity was plotted against test article concentration. Using Genedata Screener software (Genedata; Basel, Switzerland), the data were fit to the tight-binding apparent inhibition constant (Ki^app) Morrison equation [Williams, J. W. and Morrison, J. F. (1979) The kinetics of reversible tight-binding inhibition. Methods Enzymol 63: 437-67]. The following equation was used to calculate fractional activity and Ki^app:
[formula] where [E]T and [I]T are the total concentrations of active enzyme and test article, respectively.
Background: Polarisation of emitted light reports the rotation of a fluorescent probe.
For `O=C(c1nc2n(n1)[C@H](c1ccccc1)C[C@@H]2F)N(CC(F)(F)F)C1CC1` (racemic) [Example 59, rac-(5S,7S)-N-cyclopropyl-7-fluoro-5-phenyl-N-(2,2,2-trifluoroethyl)-6,7-dihydro-5H-pyrrolo[1,2-b][1,2,4|]triazole-2-carboxamide], the Ki worked out at 2200 nM.
Under `O=C(c1nc2n(n1)[C@H](c1ccccc1)C[C@@H]2F)N1CCC1C(F)F` (mixture of isomers) [Example 60, [2-(difluoromethyl)azetidin-1-yl]-[rac-(5S,7S)-7-fluoro-5-phenyl-6,7-dihydro-5H-pyrrolo[1,2-b][1,2,4]triazol-2-yl]methanone] stands 17 nM.
The result for `O=C(c1nc2n(n1)[C@H](c1ccccc1)C[C@@H]2F)N(C1CC1)C1CC1` (racemic) [Example 61, rac-(5S,7S)-N,N-dicyclopropyl-7-fluoro-5-phenyl-6,7-dihydro-5H-pyrrolo[1,2-b] [1,2,4]triazole-2-carboxamide] reads 3200 nM.
The result for `CC1CN(C(=O)c2nc3n(n2)[C@H](c2ccccc2)C[C@@H]3F)Cc2ccnn21` (mixture of isomers) [Example 62, (7-methyl-6,7-dihydro-4H-pyrazolo[1,5-a]pyrazin-5-yl)-[rac-(5S,7S)-7-fluoro-5-phenyl-6,7-dihydro-5H-pyrrolo[1,2-b][1,2,4]triazol-2-yl]methanone] reads 130 nM; that for `Cc1cc2n(n1)CCN(C(=O)c1nc3n(n1)[C@H](c1ccccc1)C[C@@H]3F)C2` (racemic) [Example 63, (2-methyl-6,7-dihydro-4H-pyrazolo[1,5-a]pyrazin-5-yl)-[rac-(5S,7S)-7-fluoro-5-phenyl-6,7-dihydro-5H-pyrrolo[1,2-b][1,2,4]triazol-2-yl]methanone], 2300 nM; that for `O=C(c1nc2n(n1)[C@@H](c1ccccc1)C[C@H]2F)N1CCC[C@H]1C(F)F` (racemic) [Example 64, [rac-(2S)-2-(difluoromethyl)pyrrolidin-1-yl]-[rac-(5R,7R)-7-fluoro-5-phenyl-6,7-dihydro-5H-pyrrolo[1,2-b][1,2,4]triazol-2-yl]methanone], 4 nM.
`O=C(c1nc2n(n1)[C@H](c1ccccc1)C[C@@H]2F)N1CCn2ccnc2C1` (racemic) [Example 68, 6,8-dihydro-5H-imidazo[1,2-a]pyrazin-7-yl-[rac-(5S,7S)-7-fluoro-5-phenyl-6,7-dihydro-5H-pyrrolo[1,2-b][1,2,4]triazol-2-yl]methanone] yielded a Ki of 49 nM.
Under `C[C@@H]1C[C@H](F)CN1C(=O)c1nc2n(n1)[C@H](c1ccccc1)C[C@@H]2F` (racemic) [Example 70, [rac-(2R,4S)-4-fluoro-2-methyl-pyrrolidin-1-yl]-[rac-(5S,7S)-7-fluoro-5-phenyl-6,7-dihydro-5H-pyrrolo[1,2-b] [1,2,4]triazol-2-yl]methanone] stands 150 nM; under `O=C(c1nc2n(n1)[C@H](c1ccccc1)C[C@@H]2F)N1CCC[C@@H]1CO` (racemic) [Example 71, [rac-(5S,7S)-7-fluoro-5-phenyl-6,7-dihydro-5H-pyrrolo[1,2-b][1,2,4]triazol-2-yl]-[rac-(2R)-2-(hydroxymethyl)pyrrolidin-1-yl]methanone], 690 nM; under `O=C(c1nc2n(n1)[C@H](c1ccccc1)C[C@@H]2F)N1CC(F)(F)CC1CO` (mixture of isomers) [Example 72, [4,4-difluoro-2-(hydroxymethyl)pyrrolodin-1-yl]-[rac-(5S,7S)-7-fluoro-5-phenyl-6,7-dihydro-5H-pyrrolo[1,2-b] [1,2,4]triazol-2-yl]methanone], 3900 nM.
In turn, `O=C(c1nc2n(n1)[C@H](c1ccccc1)C[C@@H]2F)N1CC(F)(F)C[C@H]1CF` (racemic) [Example 73, [rac-(2S)-4,4-difluoro-2-(fluoromethyl)pyrrolidin-1-yl]-[rac-(5S,7S)-7-fluoro-5-phenyl-6,7-dihydro-5H-pyrrolo[1,2-b] [1,2,4]triazol-2-yl]methanone] registered a Ki of 82 nM.
Under `O=C(c1nc2n(n1)[C@H](c1ccccc1)C[C@@H]2F)N1CCc2cnccc2C1` (racemic) [Example 75, 3.4-dihydro-1H-2,6-naphthyridin-2-yl-[rac-(5S,7S)-7-fluoro-5-phenyl-6,7-dihydro-5H-pyrrolo[1,2-b][1,2,4]triazol-2-yl]methanone] stands 290 nM; under `O=C(c1nc2n(n1)[C@H](c1ccccc1)C[C@@H]2F)N1CCC(Oc2ccccc2)C1` (mixture of isomers) [Example 77, (3-phenoxypyrrolidin-1-yl)-[rac-(5S,7S)-7-fluoro-5-phenyl-6,7-dihydro-5H-pyrrolo[1,2-b][1,2,4]triazol-2-yl]methanone], 61 nM; under `O=C(c1nc2n(n1)[C@H](c1ccccc1)C[C@@H]2F)N1CCCC1C(F)F` (mixture of isomers) [Example 78, [2-(difluoromethyl)pyrrolidin-1-yl]-[rac-(5S, 7S)-7-fluoro-5-phenyl-6,7-dihydro-5H-pyrrolo[1,2-b][1,2,4]triazol-2-yl]methanone], 60 nM.
The result for `O=C(c1nc2n(n1)[C@H](c1ccccc1)C[C@@H]2F)N1CCCC(F)(F)C1` (racemic) [Example 79, (3,3-difluoro-1-piperidyl)-[rac-(5S,7S)-7-fluoro-5-phenyl-6,7-dihydro-5H-pyrrolo[1,2-b][1,2,4]triazol-2-yl] methanone] reads 790 nM; that for `O=C(c1nc2n(n1)[C@H](c1ccccc1)C[C@@H]2F)N1CCCn2nccc21` (racemic) [Example 80, 6,7-dihydro-5H-pyrazolo[1,5-a]pyrimidin-4-yl-[rac-(5S,7S)-7-fluoro-5-phenyl-6,7-dihydro-5H-pyrrolo[1,2-b][1,2,4]triazol-2-yl]methanone], 100 nM.
Under `O=C(c1nc2n(n1)[C@H](c1ccccc1)C[C@@H]2F)N1CCC(C(F)(F)F)n2nccc21` (mixture of isomers) [Example 81, [rac-(5S,7S)-7-fluoro-5-phenyl-6,7-dihydro-5H-pyrrolo[1,2-b][1,2,4]triazol-2-yl]-[7-(trifluoromethyl)-6,7-dihydro-5H-pyrazolo [1,5-a]pyrimidin-4-yl]methanone] stands 250 nM; under `O=C(c1nc2n(n1)[C@H](c1ccccc1)C[C@@H]2F)N1CCC[C@H]1C(F)(F)F` (racemic) [Example 82, [rac-(5S,7S)-7-fluoro-5-phenyl-6,7-dihydro-5H-pyrrolo[1,2-b][1,2,4]triazol-2-yl]-[rac-(2S)-2-(trifluoromethyl)pyrrolidin-1-yl]methanone], 450 nM; under `O=C(c1nc2n(n1)[C@H](c1ccccc1)C[C@@H]2F)N1CCC[C@@H]1C(F)(F)F` (racemic) [Example 83, [rac-(5S,7S)-7-fluoro-5-phenyl-6,7-dihydro-5H-pyrrolo[1,2-b][1,2,4]triazol-2-yl]-[rac-(2R)-2-(trifluoromethyl)pyrrolidin-1-yl]methanone], 350 nM.
For `O=C(c1nc2n(n1)[C@H](c1ccccc1)C[C@@H]2F)N1CCCC1C(F)(F)F` (mixture of isomers) [Example 84, [rac-(5S,7S)-7-fluoro-5-phenyl-6,7-dihydro-5H-pyrrolo[1,2-b][1,2,4]triazol-2-yl]-[2-(trifluoromethyl)pyrrolidin-1-yl]methanone], the Ki is 300 nM.
The result for `C[C@H]1[C@H](C(F)(F)F)CCN1C(=O)c1nc2n(n1)[C@H](c1ccccc1)C[C@@H]2F` (racemic) [Example 85, [rac-(5S,7S)-7-fluoro-5-phenyl-6,7-dihydro-5H-pyrrolo[1,2-b][1,2,4]triazol-2-yl]-[rac-(2S,3R)-2-methyl-3-(trifluoromethyl)pyrrolidin-1-yl]methanone] reads 330 nM.
Consider `O=C(c1nc2n(n1)[C@H](c1ccccc1)C[C@@H]2F)N1CC2CC1CC2(F)F` (mixture of isomers) [Example 87, (5,5-difluoro-2-azabicyclo[2.2.1]heptan-2-yl)-[rac-(5S,7S)-7-fluoro-5-phenyl-6,7-dihydro-5H-pyrrolo[1,2-b][1,2,4]triazol-2-yl]methanone], for which the Ki was 150 nM.
`O=C(c1nc2n(n1)[C@H](c1ccccc1)C[C@@H]2F)N1CCc2ccncc2C1` (racemic) [Example 88, 3,4-dihydro-1H-2,7-naphthyridin-2-yl-[rac-(5S,7S)-7-fluoro-5-phenyl-6,7-dihydro-5H-pyrrolo[1,2-b][1,2,4]triazol-2-yl]methanone] displayed a Ki of 54 nM.
Under `O=C(c1nc2n(n1)[C@H](c1ccccc1)C[C@@H]2F)N1CCc2ncccc2C1` (racemic) [Example 89, 7,8-dihydro-5H-1,6-naphthyridin-6-yl-[rac-(5S,7S)-7-fluoro-5-phenyl-6,7-dihydro-5H-pyrrolo[1,2-b][1,2,4]triazol-2-yl]methanone] stands 130 nM.
Under `CN(C(=O)c1nc2n(n1)[C@H](c1ccccc1)C[C@@H]2F)c1ccccc1` (racemic) [Example 90, rac-(5S,7S)-7-fluoro-N-methyl-N,5-diphenyl-6,7-dihydro-5H-pyrrolo[1,2-b][1,2,4]triazole-2-carboxamide] stands 620 nM.

Source of the values: patent US11071721B2, “Bicyclic amide compounds and methods of use thereof” (Genentech, Inc., priority 2016, dated 2021).
